In patent US11213513B2, “Compositions and methods for promoting hair growth with Mpc1 inhibitors” (The Regents of the University of California, priority 2017, dated 2022):
Entries after “also recorded” stand apart in the source; their conditions may differ.

Legend:
Assay type in all cases: in vivo, mouse
[1] = tested on: Ldh; assay: In situ Ldh enzyme activity assay in epidermis of topically treated animals; conditions: in situ stain
Text: (§1) Animals were acquired from Jackson Labs (K15-CrePR, Lgr5-CreER and Lgr6-CreER), Rutter Lab (Mpc^fl/fl) and Seth Lab (Ldha^fl/fl) (Xie, H. et al., Cell Metab., 19, 795-809 (2014)) and maintained under conditions set forth by IUCUC and ARC. For experiments that include analysis of the telogen stage of the hair cycle, animals were harvested at post-natal day 50, for telogen-anagen transition animals were harvested at day 70, and for anagen animals were harvested at post-natal day 90. For experiments that include analysis of transgenic animals, K15-CrePR animals were shaved and treated by intraperitoneal injections of mifepristone and Lgr5-CreER and Lgr6-CreER animals were shaved and treated with tamoxifen (10 mg/ml dissolved in sunflower seed oil, 2 mg per day for 3 days) during telogen (post-natal day 50), and monitored for hair regrowth following shaving. Phenotypes shown from treated animals were produced 3-4 weeks after mifepristone administration. For FIG. 3, wildtype C57BL/6J animals were shaved at post-natal day 50 and treated topically with Transderma PLO Gel (premium lecithin organogel), PLO Gel Ultramax Base (TR220) (vehicle), or the compound of formula (I) (Compound (I)) (20 μM) (Sigma Aldrich product PZ0160) for indicated periods of time. […]

[2] = tested on: wildtype C57BL/6J animals; assay: Topical treatment of shaved telogen (day 50) mice, monitoring pigmentation, hair growth and hair cycle
Text: Animals were acquired from Jackson Labs (K15-CrePR, Lgr5-CreER and Lgr6-CreER), Rutter Lab (Mpc^fl/fl) and Seth Lab (Ldha^fl/fl) (Xie, H. et al., Cell Metab., 19, 795-809 (2014)) and maintained under conditions set forth by IUCUC and ARC. For experiments that include analysis of the telogen stage of the hair cycle, animals were harvested at post-natal day 50, for telogen-anagen transition animals were harvested at day 70, and for anagen animals were harvested at post-natal day 90. For experiments that include analysis of transgenic animals, K15-CrePR animals were shaved and treated by intraperitoneal injections of mifepristone and Lgr5-CreER and Lgr6-CreER animals were shaved and treated with tamoxifen (10 mg/ml dissolved in sunflower seed oil, 2 mg per day for 3 days) during telogen (post-natal day 50), and monitored for hair regrowth following shaving. Phenotypes shown from treated animals were produced 3-4 weeks after mifepristone administration. For FIG. 3, wildtype C57BL/6J animals were shaved at post-natal day 50 and treated topically with Transderma PLO Gel ([…] lecithin organogel), PLO Gel Ultramax Base (TR220) (vehicle), or the compound of formula (I) (Compound (I)) (20 μM) (Sigma Aldrich product PZ0160) for indicated periods of time. Both male and female animals were used in this study in approximately equal numbers with no apparent difference in phenotype between genders. All phenotypes described are representative of a minimum of n=3 littermate pairs as indicated in the description of each experiment. No statistical measure was used to determine the sample size beforehand, nor were statistics used to measure effects, as the results were essentially positive or negative as represented in the figures. The results described include data from all treated animals. The investigators were not blinded to allocation during the experimental data collection, nor were the experiments randomized. The results shown were representative images from at least three independently treated animals, and genotyping was performed both before and after animal treatment for confirmation.
Tissues were isolated from the indicated genotypes and embedded fresh in optimal cutting temperature (OCT) compound for frozen tissue preparations, or fixed overnight in 4% formalin and embedded in paraffin. For frozen tissue, sectioning was performed on a Leica 3200 Cryostat, and fixed for 5 minutes in 4% paraformaldehyde. Paraffin embedded tissue was sectioned, de-paraffinized, and prepared for histology. All sections prepared for staining were blocked in staining buffer containing appropriate control IgG (Goat, Rabbit etc.). Immunohistochemistry was performed on formalin-fixed paraffin-embedded tissue with citrate or Tris buffer antigen retrieval with the following antibodies: Ki67 (Abcam ab16667, 1:50), p-S6 (Cell Signaling CST2215, 1:50), Sox9 (Abcam ab185230, 1:1000), Ldha (Abcam ab47010, 1:100), Ldh (Abcam ab125683, 1:100), p-Stat3 (Abcam ab68153, 1:200), p-Stat1 (Abcam ab109461, 1:200), p-Stat5 (Abcam ab32364; 1:50), Gli3 (Abcam ab6050; 1:100), β-catenin (Abcam ab32572; 1:500). The DAKO EnVision+ HRP Peroxidase System (Dako K400911-2) and Dako AEC Substrate Chromogen (Dako K346430-2) was used for detection. Images were collected on an Olympus BX43 Upright Microscope and Zeiss Model Axio Imager M1 Upright Fluorescence Microscope. Protein samples for western blots and enzymatic assays were extracted from FACS sorted epidermal populations in RIPA lysis buffer (Pierce) with Halt protease and phosphatase inhibitors (Thermo-Fisher) and precipitated in acetone for concentration. The following antibodies were used: β-actin (Abcam ab8227; 1:1000), β-actin (Santa Cruz sc-47778; 1:1000), C-Myc (Abcam ab32072; 1:1000), N-Myc (Santa Cruz sc-53993; 1:200), H3K27Ac (Abcam ab177178; 1:200), Mpc1 (Sigma HPA045119).
Both male and female animals were used in this study in approximately equal numbers with no apparent difference in phenotype between genders. […]

[3] = tested on: 17 month old mice; assay: Treatment of elderly (17 month old) shaved mice, hair coat re-growth; conditions: 20 uM in PLO gel every other day, up to 30 days after shaving; DMSO control patchy
Method: 17 month old mice were shaved and treated every other day with DMSO or 20 uM of the compound of formula (I) diluted in PLO gel (pluronic lecithin organogel). Images were acquired at the indicated day after shaving and carried out for 30 days.

[4] = tested on: HFSCs; assay: Metabolomic analysis (LC-MS) of lactate in HFSCs sorted from topically treated skin
Text: as §1, with “administration.” for “administration. For FIG. 3, wildtype C57BL/6J animals were shaved at post-natal day 50 and treated topically with Transderma PLO Gel (premium lecithin organogel), PLO Gel Ultramax Base (TR220) (vehicle), or the compound of formula (I) (Compound (I)) (20 μM) (Sigma Aldrich product PZ0160) for indicated periods of time.”
Whole dorsal and ventral mouse skin were excised and floated on trypsin (0.25%) for 1 h at 37° C. or overnight at 4° C. […] The cells were then filtered through a […] cell strainer and stained for fluorescence-activated cell sorting (FACS) processing with CD34 Monoclonal Antibody (RAM34), FITC, eBioscience™ (Catalog #:11-0341-82) and CD49d (Integrin alpha 4) Monoclonal Antibody (R1-2), PE, eBioscience™ (Catalog #: 12-0492-81). […]

[5] = topical treatment of animals in telogen (day 50)

Structure (SMILES): N#CC(=Cc1cn(-c2ccccc2)c2ccccc12)C(=O)O [compound of formula (I)]
- Ldh enzyme activity in interfollicular epidermis ([1]; topical application for 48 hours during telogen): increased Ldh activity in the interfollicular epidermis; also recorded: also seen in interfollicular epidermis
- Ldh enzyme activity in HFSCs ([1]; topically treated animals): strong activity in HFSCs
- effect on proliferation of the interfollicular epidermis [2, 5]: minor hyperproliferation of the interfollicular epidermis
- effect on the hair cycle [2, 5]: robust acceleration of the hair cycle
- time of treatment to full anagen, indicated by full coat of hair ([2]; topical, 20 μM): 14 days
- skin pathology: anagen entry (down growth of the follicle and hypodermal thickening) ([2]; topical, 20 μM, vehicle animals remained in telogen): entered an accelerated anagen at 8 weeks
- time of treatment to pigmentation and hair growth, indicative of entry into anagen ([2]; topical, 20 μM, vehicle control showed none even after 12 days): 8 days
- time to beginning of hair cycle acceleration (time to observed phenotype) ([2]; topical, at least 6 pairs of animals, vehicle vs compound): 3 to 5 days
- hair coat re-growth in aged mice [3]: more complete re-growth; also recorded: more complete hair growth
- lactate levels, replicate experiment ([4]; 48-72 hours of treatment): increase in lactate levels
- total levels of lactate in sorted HFSCs ([4]; topical application, 48 hours): increases total levels of lactate
